HELM strings list units from the 5' end as sugar, base in round brackets, then linkage (d deoxyribose, r ribose, m 2'-O-methyl, p phosphodiester). Strings are as the collection lists them; they lack the last nucleoside at the 3' end of the tested compound. [moe] = 2'-O-(2-methoxyethyl) (MOE); [sp] = phosphorothioate linkage; [m5C] = 5-methylcytosine
The substances below were run against GFAP (assay: mouse, dose not given). Details: ASO.

Point of comparison: “RNA1{[moe](T)[sp].[moe](T)p.[moe](T)p.[moe](G)p.d(T)[sp].d([m5C])[sp].d(T)[sp].d(T)[sp].d(T)[sp].d(A)[sp].d(T)[sp].d(T)[sp].d(T)[sp].d(T)[sp].[moe](T)p.[moe]([m5C])p.[moe]([m5C])p.[moe](T)[sp].[moe]([m5C])}$$$$ (last 3' nucleoside missing)”, 3 h FOB score 1 score 0-7. Against it:
- RNA1{[moe](G)[sp].[moe](G)p.[moe]([m5C])p.[moe](A)p.[moe]([m5C])p.[moe](A)p.d(G)[sp].d(T)[sp].d(T)[sp].d([m5C])[sp].d([m5C])[sp].d([m5C])[sp].d(A)[sp].d(G)[sp].d(A)[sp].d(T)[sp].[moe](A)p.[moe]([m5C])[sp].[moe](T)}$$$$ (last 3' nucleoside missing) — the same, 1 score 0-7
- RNA1{[moe](G)[sp].[moe](T)p.[moe]([m5C])p.[moe](A)p.[moe](G)p.[moe]([m5C])p.d([m5C])[sp].d(T)[sp].d(G)[sp].d(G)[sp].d(T)[sp].d(T)[sp].d(A)[sp].d(G)[sp].d([m5C])[sp].d([m5C])[sp].[moe](T)p.[moe](T)[sp].[moe](T)}$$$$ (last 3' nucleoside missing) — higher, 4 score 0-7
- RNA1{[moe](G)[sp].[moe](G)p.[moe]([m5C])p.[moe](A)p.[moe](G)[sp].d(T)[sp].d(A)[sp].d(T)[sp].d(T)[sp].d(A)[sp].d([m5C])[sp].d([m5C])[sp].d(T)[sp].[moe]([m5C])p.[moe](T)p.[moe](A)[sp].[moe]([m5C])}$$$$ (last 3' nucleoside missing) — lower, 0 score 0-7
- RNA1{[moe](G)[sp].[moe](G)p.[moe](A)p.[moe](T)p.[moe]([m5C])[sp].d(T)[sp].d([m5C])[sp].d([m5C])[sp].d(T)[sp].d([m5C])[sp].d([m5C])[sp].d(T)[sp].d([m5C])[sp].d([m5C])[sp].d(A)[sp].[moe](G)p.[moe]([m5C])p.[moe](G)[sp].[moe](A)}$$$$ (last 3' nucleoside missing) — lower, 0 score 0-7
- RNA1{[moe](G)[sp].[moe]([m5C])p.[moe](A)p.[moe]([m5C])p.[moe](A)p.[moe](G)p.d(T)[sp].d(T)[sp].d([m5C])[sp].d([m5C])[sp].d([m5C])[sp].d(A)[sp].d(G)[sp].d(A)[sp].d(T)[sp].d(A)[sp].[moe]([m5C])p.[moe](T)[sp].[moe]([m5C])}$$$$ (last 3' nucleoside missing) — lower, 0 score 0-7
- RNA1{[moe](T)[sp].[moe](G)p.[moe](A)p.[moe](G)p.[moe](T)[sp].d(T)[sp].d(T)[sp].d([m5C])[sp].d(T)[sp].d(T)[sp].d(G)[sp].d(T)[sp].d(T)[sp].d(A)[sp].d(G)[sp].[moe](T)p.[moe](T)p.[moe](G)[sp].[moe](G)}$$$$ (last 3' nucleoside missing) — higher, 6 score 0-7
- RNA1{[moe](G)[sp].[moe](A)p.[moe]([m5C])p.[moe]([m5C])p.[moe](T)[sp].d(G)[sp].d(T)[sp].d(G)[sp].d(A)[sp].d([m5C])[sp].d(T)[sp].d(A)[sp].d(T)[sp].d([m5C])[sp].d(T)[sp].[moe](A)p.[moe](G)p.[moe](G)[sp].[moe](A)}$$$$ (last 3' nucleoside missing) — higher, 3 score 0-7
- RNA1{[moe](G)[sp].[moe](T)p.[moe](G)p.[moe](G)p.[moe](T)p.d([m5C])[sp].d([m5C])[sp].d(T)[sp].d(A)[sp].d(A)[sp].d(A)[sp].d(T)[sp].d(A)[sp].d(T)[sp].d(T)[sp].[moe]([m5C])p.[moe](T)p.[moe](A)[sp].[moe](G)}$$$$ (last 3' nucleoside missing) — the same, 1 score 0-7
- RNA1{[moe](G)[sp].[moe](T)p.[moe](G)p.[moe]([m5C])p.[moe](T)p.[moe](T)p.d(T)[sp].d(T)[sp].d(G)[sp].d([m5C])[sp].d([m5C])[sp].d([m5C])[sp].d([m5C])[sp].d([m5C])[sp].d(T)[sp].d(G)[sp].[moe](T)p.[moe](A)[sp].[moe](G)}$$$$ (last 3' nucleoside missing) — higher, 3 score 0-7
- RNA1{[moe](G)[sp].[moe](A)p.[moe](G)p.[moe](T)p.[moe](G)[sp].d(T)[sp].d(G)[sp].d(T)[sp].d(A)[sp].d(T)[sp].d(T)[sp].d(A)[sp].d(G)[sp].d(G)[sp].d(A)[sp].[moe](T)p.[moe]([m5C])p.[moe]([m5C])[sp].[moe]([m5C])}$$$$ (last 3' nucleoside missing) — higher, 6 score 0-7
- RNA1{[moe](T)[sp].[moe](G)p.[moe](T)p.[moe](G)p.[moe](T)p.[moe](A)p.d(T)[sp].d(T)[sp].d(A)[sp].d(G)[sp].d(G)[sp].d(A)[sp].d(T)[sp].d([m5C])[sp].d([m5C])[sp].d([m5C])[sp].[moe](A)p.[moe](T)[sp].[moe]([m5C])}$$$$ (last 3' nucleoside missing) — higher, 3 score 0-7
- RNA1{[moe](A)[sp].[moe]([m5C])p.[moe](A)p.[moe](T)p.[moe](T)p.d([m5C])[sp].d(A)[sp].d([m5C])[sp].d(T)[sp].d(A)[sp].d(A)[sp].d(T)[sp].d(A)[sp].d(T)[sp].d(T)[sp].[moe](T)p.[moe](A)p.[moe](A)[sp].[moe]([m5C])}$$$$ (last 3' nucleoside missing) — lower, 0 score 0-7
- RNA1{[moe](A)[sp].[moe](T)p.[moe](T)p.[moe](T)p.[moe](G)[sp].d(T)[sp].d([m5C])[sp].d(T)[sp].d(T)[sp].d(T)[sp].d(A)[sp].d(T)[sp].d(T)[sp].[moe](T)p.[moe](T)p.[moe](T)[sp].[moe]([m5C])}$$$$ (last 3' nucleoside missing) — lower, 0 score 0-7
- RNA1{[moe](A)[sp].[moe](A)p.[moe](T)p.[moe]([m5C])p.[moe](A)[sp].d(A)[sp].d(G)[sp].d([m5C])[sp].d(T)[sp].d([m5C])[sp].d([m5C])[sp].d([m5C])[sp].d(A)[sp].d([m5C])[sp].d([m5C])[sp].[moe](T)p.[moe](G)p.[moe]([m5C])[sp].[moe]([m5C])}$$$$ (last 3' nucleoside missing) — lower, 0 score 0-7
- RNA1{[moe](G)[sp].[moe](T)p.[moe](G)p.[moe](A)p.[moe](T)[sp].d(T)[sp].d(T)[sp].d(T)[sp].d([m5C])[sp].d([m5C])[sp].d([m5C])[sp].d([m5C])[sp].d(G)[sp].[moe](T)p.[moe]([m5C])p.[moe](T)[sp].[moe](T)}$$$$ (last 3' nucleoside missing) — lower, 0 score 0-7
- RNA1{[moe](G)[sp].[moe](G)p.[moe](T)p.[moe]([m5C])p.[moe]([m5C])[sp].d(T)[sp].d(A)[sp].d(A)[sp].d(A)[sp].d(T)[sp].d(A)[sp].d(T)[sp].d(T)[sp].d([m5C])[sp].d(T)[sp].[moe](A)p.[moe](G)p.[moe](T)[sp].[moe]([m5C])}$$$$ (last 3' nucleoside missing) — the same, 1 score 0-7
- RNA1{[moe](G)[sp].[moe]([m5C])p.[moe](T)p.[moe](T)p.[moe](T)p.d(T)[sp].d(G)[sp].d([m5C])[sp].d([m5C])[sp].d([m5C])[sp].d([m5C])[sp].d([m5C])[sp].d(T)[sp].d(G)[sp].d(T)[sp].[moe](A)p.[moe](G)p.[moe](T)[sp].[moe](G)}$$$$ (last 3' nucleoside missing) — higher, 4 score 0-7
- RNA1{[moe](T)[sp].[moe](T)p.[moe](G)p.[moe](T)p.d([m5C])[sp].d(T)[sp].d(T)[sp].d(T)[sp].d(A)[sp].d(T)[sp].d(T)[sp].d(T)[sp].d(T)[sp].d(T)[sp].[moe]([m5C])p.[moe]([m5C])p.[moe](T)p.[moe]([m5C])[sp].[moe](A)}$$$$ (last 3' nucleoside missing) — higher, 2 score 0-7
- RNA1{[moe](G)[sp].[moe](T)p.[moe](G)p.[moe](T)p.[moe](A)[sp].d(T)[sp].d(T)[sp].d(A)[sp].d(G)[sp].d(G)[sp].d(A)[sp].d(T)[sp].d([m5C])[sp].d([m5C])[sp].d([m5C])[sp].[moe](A)p.[moe](T)p.[moe]([m5C])[sp].[moe](T)}$$$$ (last 3' nucleoside missing) — higher, 4 score 0-7
- RNA1{[moe](G)[sp].[moe]([m5C])p.[moe](A)p.[moe](G)p.[moe](T)p.[moe](A)p.d(T)[sp].d(T)[sp].d(A)[sp].d([m5C])[sp].d([m5C])[sp].d(T)[sp].d([m5C])[sp].d(T)[sp].d(A)[sp].d([m5C])[sp].[moe](T)p.[moe](A)[sp].[moe](G)}$$$$ (last 3' nucleoside missing) — lower, 0 score 0-7
- RNA1{[moe](T)[sp].[moe](A)p.[moe](T)p.[moe]([m5C])p.[moe](T)[sp].d(G)[sp].d(T)[sp].d(G)[sp].d([m5C])[sp].d(T)[sp].d(T)[sp].d(T)[sp].d(A)[sp].[moe](G)p.[moe](T)p.[moe](G)[sp].[moe](A)}$$$$ (last 3' nucleoside missing) — higher, 3 score 0-7
- RNA1{[moe]([m5C])[sp].[moe](T)p.[moe]([m5C])p.[moe](T)p.[moe](A)[sp].d(T)[sp].d([m5C])[sp].d([m5C])[sp].d([m5C])[sp].d(T)[sp].d([m5C])[sp].d([m5C])[sp].d([m5C])[sp].d(A)[sp].d(G)[sp].[moe]([m5C])p.[moe](A)p.[moe]([m5C])[sp].[moe]([m5C])}$$$$ (last 3' nucleoside missing) — higher, 2 score 0-7
- RNA1{[moe](G)[sp].[moe](T)p.[moe]([m5C])p.[moe](A)p.d([m5C])[sp].d(A)[sp].d(T)[sp].d(T)[sp].d([m5C])[sp].d(A)[sp].d([m5C])[sp].d(T)[sp].d(A)[sp].d(A)[sp].[moe](T)p.[moe](A)p.[moe](T)p.[moe](T)[sp].[moe](T)}$$$$ (last 3' nucleoside missing) — lower, 0 score 0-7
- RNA1{[moe](G)[sp].[moe]([m5C])p.[moe]([m5C])p.[moe](A)p.[moe](G)p.[moe](T)p.d(G)[sp].d(T)[sp].d([m5C])[sp].d(T)[sp].d(T)[sp].d([m5C])[sp].d(A)[sp].d([m5C])[sp].d(T)[sp].d(T)[sp].[moe](T)p.[moe](G)[sp].[moe]([m5C])}$$$$ (last 3' nucleoside missing) — the same, 1 score 0-7
- RNA1{[moe](T)[sp].[moe]([m5C])p.[moe](T)p.[moe](T)p.[moe](T)[sp].d(A)[sp].d(T)[sp].d(T)[sp].d(T)[sp].d(T)[sp].d(T)[sp].d([m5C])[sp].d([m5C])[sp].[moe](T)p.[moe]([m5C])p.[moe](A)[sp].[moe](G)}$$$$ (last 3' nucleoside missing) — the same, 1 score 0-7
